Experimental findings from patent publication US20130267551A1, “SUBSTITUTED HYDROGENATED THIENO-PYRROLO[3,2-C]PYRIDINE, LIGANDS, A PHARMACEUTICAL COMPOSITION AND A METHOD FOR USING THE ABOVE” (ALLA CHEM, LLC, priority 2010, published 2013) are described below.

Structures can show the parent of a compound that is named as a salt. Where two headings read alike, the source gives them in different places.

One test concerns the target Histaminergic H3 (Homo sapiens, UniProt Q9Y5N1). Description: competitive radioligand binding, Histaminergic H3. To be noted: compound concentration of 1 μM; read-out: radio-labelled ligand displacement, Histaminergic H3. As to the method:
(§1) Profiles of pharmacological activity of thieno-pyrrolo[3,2-c]pyridines of the general formula 1. Biological activity test of compounds of the general formula 1 was carried out in the setting of competitive radioligand binding [I. Okun, S. Tkachenko, A. Khvat, et al., Current Alzheimer Research, 7(2), 97-112 (2010)], using a wide range of therapeutic targets including G-protein coupled receptors (GPCR), ion channels and neuromediator transporters. The tested activity was determined by quantitative measurement of radio-labelled ligand displacement by tested compounds of the general formula 1 at their concentration of 1 μM.

The test system of another test is Adrenergic α1B. Kind of test: competitive radioligand binding, Adrenergic α1B. The following applies: compound concentration of 1 μM. As to the method:
as §1

The next test has as its target Dopaminergic D1 (Homo sapiens, UniProt P21728). Kind of test: competitive radioligand binding, Dopaminergic D1. To be noted: compound concentration of 1 μM; read-out: radio-labelled ligand displacement, Dopaminergic D1. As to the method:
as §1

A further test addresses Serotoninergic 5-HT2B (Homo sapiens, UniProt P41595). Kind of test: competitive radioligand binding, Serotoninergic 5-HT2B. The following applies: read-out: radio-labelled ligand displacement, Serotoninergic 5-HT2B. As to the method: as §1
The next test addresses Serotoninergic 5-HT7 (Homo sapiens, UniProt P34969). Description: competitive radioligand binding, Serotoninergic 5-HT7. To be noted: compound concentration of 1 μM; read-out: radio-labelled ligand displacement, Serotoninergic 5-HT7. As to the method:
as §1

In another test the target is Serotoninergic 5-HT6 (Homo sapiens, UniProt P50406). Description: competitive radioligand binding, Serotoninergic 5-HT6. The following applies: compound concentration of 1 μM; read-out: radio-labelled ligand displacement, Serotoninergic 5-HT6. As to the method:
as §1

In another test the target is T1, Adrenergic α1D (Homo sapiens, UniProt P25100).
T1 sequence (P25100 1-572): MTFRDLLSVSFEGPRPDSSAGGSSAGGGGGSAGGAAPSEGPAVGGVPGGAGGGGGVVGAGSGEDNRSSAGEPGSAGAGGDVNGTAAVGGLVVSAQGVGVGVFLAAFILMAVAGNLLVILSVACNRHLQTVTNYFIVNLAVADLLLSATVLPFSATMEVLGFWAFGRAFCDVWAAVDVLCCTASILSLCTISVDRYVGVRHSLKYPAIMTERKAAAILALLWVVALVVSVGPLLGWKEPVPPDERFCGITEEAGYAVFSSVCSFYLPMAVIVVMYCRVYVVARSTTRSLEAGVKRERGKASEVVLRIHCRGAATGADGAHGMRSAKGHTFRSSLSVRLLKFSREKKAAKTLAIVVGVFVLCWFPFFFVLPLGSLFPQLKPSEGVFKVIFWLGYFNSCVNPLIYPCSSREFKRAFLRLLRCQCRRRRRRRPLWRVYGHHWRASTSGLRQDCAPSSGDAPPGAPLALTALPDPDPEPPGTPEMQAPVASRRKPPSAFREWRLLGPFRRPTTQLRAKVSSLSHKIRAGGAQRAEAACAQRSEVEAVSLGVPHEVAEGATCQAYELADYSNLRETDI
Description: competitive radioligand binding, Adrenergic α1D. The following applies: compound concentration of 1 μM; read-out: radio-labelled ligand displacement, Adrenergic α1D. As to the method:
as §1

Test [1] concerns Therapeutic targets (Adrenergic, Dopaminergic, Histaminergic, Serotoninergic). Kind of test: Profiles of pharmacological activity in competitive radioligand binding (whole panel). The following applies: 1 μM, grades not defined. As to the method:
as §1

The test system of test [2] is male mice of BALB/c line. Kind of test: Porsolt's Forced Swim Test. In kind it is in vivo. The following applies: after 4 days injections in dose 1 mg/kg, last 5 minutes of the test. As to the method: Antidepressant action of antagonists of the general formula 1 in Porsolt's Forced Swim Test. Test apparatus represented a plastic vessel filled with water up to height of 18 cm at 20-22° C. Experiments were carried out in aged male mice of BALB/c line weighing 20-24 g.
Mice were placed in water and for 15 minutes duration of immobile hanging in water so called behavioural despaire, which is considered to be a measure of depressively-like state, was registered. The last 5 minutes of the test were used for analysis. Automated computerized detection of motion with videosystem and Any-maze program were used in the test.

Test [3] concerns male mice of BALB/c line. Description: Mice behavior in tail suspension test. In kind it is in vivo. To be noted: after 4 days injections in dose of 0.1 mg/kg, 6 minutes. As to the method:
Antidepressant action of compounds of the general formula 1 in test “Mice behavior in tail suspension test”. Experiments were carried out in aged male mice of BALB/c line weighing 20-24 g. Mice were suspended by tail with scotch tape on holder over horizontal surface at height of about 40 cm, and for 6 minutes of total duration of complete immobility episodes which is considered to be a measure of depressively-like state was registered. Automated computerized detection of motion with videosystem and Any-maze program were used in test.

For a further test, the system named is Mice of SHK line. Kind of test: Prepulse inhibition of startle response in mice (Apomorphine). To be noted: 1 mg/kg, subcutaneously 60 minutes before the test.
The test system of test [4] is male mice of BALB/c line. Kind of test: Passive Avoidance of mice in Shuttle Chamber (memory disturbed by Scopolamine). In kind it is in vivo. The following applies: intraperitoneally 30 minutes before training, in combination with Scopolamine. As to the method: Nootropic action (enhancement of memory disturbed by Scopolamine) of compounds of the general formula 1 in test “Passive Avoidance of mice in Shuttle Chamber”. Shuttle chamber (Ugo Basile, Italy) consisted of two sections was used. […] Sections were connected through a hole which could be overlapped by vertical door. The floor was made of transverse metal bars on which DC current impulses could be fed. Experiments were carried out in aged male mice of BALB/c line weighing 20-24 g. On the first day of experiment 30 minutes before training mice were injected intraperitoneally with physiological solution, (0.3 mg/kg) or Scopolamine in combination with compound 3.6(1).HCl, or Scopolamine in combination with compound 2.5(1).HCl. Each group consisted of 8 animals. Animals were placed in light section, and latent period of the first entry into the dark chamber was registered. Then the vertical door was closed and the animal was punished by 0.6 mA DC current for 3 seconds. After that the animal was taken back to its home cage. In 22-24 hours the same animal was placed again in light section of shuttle chamber and latent period of its first entry into dark section, total time of its stay in light section and number of entries into dark section was registered. Each monitoring lasted for 5 minutes. […]

Sequence of Dopaminergic D1 (P21728 whole entry): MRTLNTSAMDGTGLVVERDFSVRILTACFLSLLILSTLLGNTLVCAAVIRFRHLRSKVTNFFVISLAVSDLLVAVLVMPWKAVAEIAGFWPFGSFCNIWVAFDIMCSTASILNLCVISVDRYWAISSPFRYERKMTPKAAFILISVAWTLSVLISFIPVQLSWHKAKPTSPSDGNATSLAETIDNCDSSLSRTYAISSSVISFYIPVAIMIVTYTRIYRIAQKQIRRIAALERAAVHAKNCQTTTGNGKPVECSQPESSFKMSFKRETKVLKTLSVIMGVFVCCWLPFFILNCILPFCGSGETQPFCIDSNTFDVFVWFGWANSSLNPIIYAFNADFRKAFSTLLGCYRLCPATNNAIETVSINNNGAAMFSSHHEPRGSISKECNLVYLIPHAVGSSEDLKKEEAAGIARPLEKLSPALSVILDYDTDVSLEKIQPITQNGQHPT
Sequence of Serotoninergic 5-HT2B (P41595 whole entry): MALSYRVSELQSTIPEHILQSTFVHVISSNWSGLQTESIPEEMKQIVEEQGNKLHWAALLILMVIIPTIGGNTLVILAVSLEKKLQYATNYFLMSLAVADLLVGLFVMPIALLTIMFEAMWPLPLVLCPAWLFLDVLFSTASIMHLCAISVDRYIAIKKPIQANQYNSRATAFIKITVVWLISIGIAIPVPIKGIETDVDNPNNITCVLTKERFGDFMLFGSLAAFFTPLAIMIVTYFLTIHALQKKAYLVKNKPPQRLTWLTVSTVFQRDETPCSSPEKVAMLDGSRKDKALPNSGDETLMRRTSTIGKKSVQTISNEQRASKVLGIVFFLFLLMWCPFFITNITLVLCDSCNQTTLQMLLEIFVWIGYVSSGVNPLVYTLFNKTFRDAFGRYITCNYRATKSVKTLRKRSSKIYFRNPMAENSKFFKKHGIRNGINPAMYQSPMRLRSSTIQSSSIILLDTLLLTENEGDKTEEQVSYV
Sequence of Serotoninergic 5-HT6 (P50406 whole entry): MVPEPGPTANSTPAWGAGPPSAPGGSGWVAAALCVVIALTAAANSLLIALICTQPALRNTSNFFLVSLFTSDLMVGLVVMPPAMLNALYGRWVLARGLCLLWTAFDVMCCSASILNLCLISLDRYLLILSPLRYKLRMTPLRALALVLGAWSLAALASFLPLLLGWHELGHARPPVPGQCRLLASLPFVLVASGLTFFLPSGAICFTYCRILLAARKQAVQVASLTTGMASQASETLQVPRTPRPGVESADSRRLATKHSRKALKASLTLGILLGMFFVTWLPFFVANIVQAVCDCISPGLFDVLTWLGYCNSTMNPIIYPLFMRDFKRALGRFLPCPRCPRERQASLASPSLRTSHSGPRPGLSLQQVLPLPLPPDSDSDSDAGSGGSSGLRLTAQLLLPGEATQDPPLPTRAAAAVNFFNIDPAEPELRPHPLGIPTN
Sequence of Histaminergic H3 (Q9Y5N1 whole entry): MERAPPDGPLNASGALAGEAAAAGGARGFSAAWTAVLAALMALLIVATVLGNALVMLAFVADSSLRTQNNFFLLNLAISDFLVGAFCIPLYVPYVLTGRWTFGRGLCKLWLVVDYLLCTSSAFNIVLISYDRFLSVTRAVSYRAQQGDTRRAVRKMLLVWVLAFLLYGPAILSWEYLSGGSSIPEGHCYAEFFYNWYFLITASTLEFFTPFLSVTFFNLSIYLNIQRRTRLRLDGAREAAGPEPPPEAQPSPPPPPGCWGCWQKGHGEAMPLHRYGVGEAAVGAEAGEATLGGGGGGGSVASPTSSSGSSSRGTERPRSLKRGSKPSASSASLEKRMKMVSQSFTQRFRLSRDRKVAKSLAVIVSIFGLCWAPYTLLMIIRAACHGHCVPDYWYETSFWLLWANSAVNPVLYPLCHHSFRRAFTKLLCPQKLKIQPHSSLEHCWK
Sequence of Serotoninergic 5-HT7 (P34969 whole entry): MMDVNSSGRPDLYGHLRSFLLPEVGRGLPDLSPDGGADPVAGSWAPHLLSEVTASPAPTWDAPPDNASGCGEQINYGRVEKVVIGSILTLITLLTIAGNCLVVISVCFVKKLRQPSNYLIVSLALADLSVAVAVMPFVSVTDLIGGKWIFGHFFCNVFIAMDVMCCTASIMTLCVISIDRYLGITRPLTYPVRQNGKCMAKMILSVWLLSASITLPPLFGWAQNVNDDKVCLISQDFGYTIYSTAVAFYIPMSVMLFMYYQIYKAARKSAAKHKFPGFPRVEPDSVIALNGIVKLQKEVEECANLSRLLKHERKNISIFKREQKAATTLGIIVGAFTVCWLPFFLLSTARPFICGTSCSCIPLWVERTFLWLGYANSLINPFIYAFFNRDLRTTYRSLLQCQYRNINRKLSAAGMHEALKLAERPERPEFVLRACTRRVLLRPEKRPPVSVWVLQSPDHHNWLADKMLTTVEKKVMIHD

As for `Cc1ccc(CCCn2c3c(c4scc(Cl)c42)CN(C)CC3)cn1` [2.12(5)•HCl, 7-methyl-4-[3-(6-methylpyridin-3-yl)propyl]-3-chloro-5,6,7,8-tetrahydro-4H-thieno[2′,3′:4,5]pyrrolo[3,2-c]pyridine], the inhibition at 1 µM on Histaminergic H3 was 12%; on Dopaminergic D1, 75%; on Serotoninergic 5-HT2B (compound concentration of 1 μM), 95%; on Serotoninergic 5-HT7, 99%; at Serotoninergic 5-HT6, 100%; on Adrenergic α1D, 93%. For the same compound, in the test with Adrenergic α1B, the radio-labelled ligand displacement, Adrenergic α1B was 97%. Further, the “grade of the activity profile (poor / satisfactory / good)” value (“grade … (poor / satisfactory / good)” below) in [1] is “good”.

As for `Cc1cc2c3c(n(Cc4ccccc4)c2s1)CC1CCC3N1C` (centres unmarked) [3.13(1)•HCl, 9-benzyl-2,10-dimethyl-4,5,6,7,8,9-hexahydro-4,7-epiminocyclohepta[b]thieno[3,2-d]pyrrole], the inhibition at 1 µM at Histaminergic H3 turned out to be 12%; at Dopaminergic D1 it was 40%; at Serotoninergic 5-HT2B, 90%; on Serotoninergic 5-HT7, 79%; on Serotoninergic 5-HT6 it was 67%; at Adrenergic α1D, 43%. Further, in the test with Adrenergic α1B, the radio-labelled ligand displacement, Adrenergic α1B came to 69%. Also, the “grade … (poor / satisfactory / good)” value in [1] was “satisfactory”.

As for `Cc1cc2c(s1)c1c(n2-c2cccc(F)c2)CCN(C)C1` [2.4(3)•HCl, 2,7-dimethyl-4-(3-fluorophenyl)-5,6,7,8-tetrahydro-4H-thieno[2′,3′:4,5]pyrrolo[3,2-c]pyridine], the inhibition at 1 µM stood at 1% on Histaminergic H3; 5% on Dopaminergic D1; 39% on Serotoninergic 5-HT2B (compound concentration of 1 μM); 43% on Serotoninergic 5-HT7; 26% on Serotoninergic 5-HT6; 28% at Adrenergic α1D. Also, the radio-labelled ligand displacement, Adrenergic α1B in the test with Adrenergic α1B was found to be 10%. In test [1], the “grade … (poor / satisfactory / good)” value was “poor”.

As to `Cc1ccc(Cn2c3c(c4sc(Cl)cc42)C(C)N(C)C(C)C3)cn1` (centres unmarked) [2.5(4)•HCl, 4-(6-methylpyridin-3-ylmethyl)-6,7,8-trimethyl-2-chloro-5,6,7,8-tetrahydro-4H-thieno[2′,3′:4,5]pyrrolo[3,2-c]pyridine], the inhibition at 1 µM on Histaminergic H3 was 9%; at Dopaminergic D1 it was 3%; on Serotoninergic 5-HT2B (compound concentration of 1 μM) it was 78%; on Serotoninergic 5-HT7, 87%; on Serotoninergic 5-HT6, 85%; on Adrenergic α1D, 29%. The radio-labelled ligand displacement, Adrenergic α1B in the test with Adrenergic α1B came out at 38%. The “grade … (poor / satisfactory / good)” value in [1] is on record as “satisfactory”.

Take `Cc1cc2c3c(n(Cc4ccccc4)c2s1)CCN(C)C3.Cl` [3.5(1)•HCl, 8-Benzyl-2,5-dimethyl-5,6,7,8-tetrahydro-4H-thieno[3′,2′:4,5]pyrrolo[3,2-c]pyridine hydrochloride]: the inhibition at 1 µM is 18% on Histaminergic H3; 5% on Dopaminergic D1; 90% on Serotoninergic 5-HT2B; 95% at Serotoninergic 5-HT7; 85% at Serotoninergic 5-HT6; 44% on Adrenergic α1D. In the test with Adrenergic α1B, this compound registered a radio-labelled ligand displacement, Adrenergic α1B of 57%.

With `CC1Cc2c(c3sc(Cl)cc3n2C#Cc2cccc(F)c2)C(C)N1C` (centres unmarked) [2.10(3)•HCl, 6,7,8-trimethyl-4-(3-fluorophenyl)ethynyl-2-chloro-5,6,7,8-tetrahydro-4H-thieno[2′,3′:4,5]pyrrolo[3,2-c]pyridine], the inhibition at 1 µM is -10% on Histaminergic H3; 4% on Dopaminergic D1; 39% at Serotoninergic 5-HT2B (compound concentration of 1 μM); 33% on Serotoninergic 5-HT7; 35% on Serotoninergic 5-HT6; 11% on Adrenergic α1D. The compound further registered a radio-labelled ligand displacement, Adrenergic α1B in the test on Adrenergic α1B of 5%. Besides, in test [1], the “grade … (poor / satisfactory / good)” value is listed as “poor”.

Consider `Cc1cc2c(s1)c1c(n2Cc2ccccc2)CCN(C)C1.Cl` [2.5(1)•HCl, 4-Benzyl-2,7-dimethyl-5,6,7,8-tetrahydro-4H-thieno[2′,3′:4,5]pyrrolo[3,2-c]pyridine hydrochloride], for which the inhibition at 1 µM was -4% at Histaminergic H3; 5% on Dopaminergic D1; 91% at Serotoninergic 5-HT2B; 92% on Serotoninergic 5-HT7; 55% on Serotoninergic 5-HT6; 21% on Adrenergic α1D. This compound showed a radio-labelled ligand displacement, Adrenergic α1B with Adrenergic α1B of 10%. Moreover, in the test with male mice of BALB/c line [2], the “Antidepressant action: duration of immobile hanging in water” value was “decrease this index”. The “Antidepressant action: duration of complete immobility” value in the test on male mice of BALB/c line [3] is given as “decrease the duration of complete immobility of mice”. Besides, the “Antipsychotic activity: disturbance of prepulse inhibition of startle caused by Apomorphine” value with Mice of SHK line is listed as “prevented disturbance of prepulse inhibition of startle caused by Apomorphine”. The “Nootropic action: training disturbed by Scopolamine” value in the test on male mice of BALB/c line [4] is listed as “improve training disturbed by Scopolamine”.

With `Cc1cc2c(s1)c1c(n2CCc2ccccc2)CCN(C)C1.Cl` [2.6(1)•HCl, 2,7-Dimethyl-4-(2-phenylethyl)-5,6,7,8-tetrahydro-4H-thieno[2′,3′:4,5]pyrrolo[3,2-c]pyridine hydrochloride], the inhibition at 1 µM was -15% on Histaminergic H3; 15% on Dopaminergic D1; 79% at Serotoninergic 5-HT2B; 98% on Serotoninergic 5-HT7; 98% at Serotoninergic 5-HT6; 64% at Adrenergic α1D. The radio-labelled ligand displacement, Adrenergic α1B in the test with Adrenergic α1B came out at 90%.
